Assay results reported in ChEMBL document CHEMBL1201861, “Genomics of Drug Sensitity in Cancer screening data, Wellcome Trust Sanger Institute”.

Legend:
[1] = test system: SNU-423; test: cells; format: functional, cell-based, Homo sapiens
Description: SANGER: Inhibition of human SNU-423 cell growth in a cell viability assay.

[2] = test system: MHH-ES-1; test: cells; format: functional, cell-based, Homo sapiens
Description: SANGER: Inhibition of human MHH-ES-1 cell growth in a cell viability assay.

[3] = test system: KNS-62; test: cells; format: functional, cell-based, Homo sapiens; settings: Homo sapiens, KNS-62
Description: SANGER: Inhibition of human KNS-62 cell growth in a cell viability assay.

[4] = test system: BXPC-3; test: cells; format: functional, cell-based, Homo sapiens;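 note: growth inhibition of human BxPC-3 cells, read out by a cell viability assay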
Description: SANGER: Inhibition of human BxPC-3 cell growth in a cell viability assay.

[5] = test system: HCC1419; test: cells; format: functional, cell-based, Homo sapiens;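 note: growth inhibition of human HCC1419 cells, read out as cell viability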
Description: SANGER: Inhibition of human HCC1419 cell growth in a cell viability assay.

[6] = test system: YH-13; test: cells; format: functional, cell-based, Homo sapiens; settings: Homo sapiens, YH-13;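 note: cell viability readout of growth suppression in the human YH-13 cell line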
Description: SANGER: Inhibition of human YH-13 cell growth in a cell viability assay.

[7] = test system: SNU-449; test: cells; format: functional, cell-based, Homo sapiens
Description: SANGER: Inhibition of human SNU-449 cell growth in a cell viability assay.

[8] = test system: HCC1395; test: cells; format: functional, cell-based, Homo sapiens;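 note: growth inhibition of HCC1395 cells, read out by a cell viability assay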
Description: SANGER: Inhibition of human HCC1395 cell growth in a cell viability assay.

[9] = test system: Daoy; test: cells; format: functional, cell-based, Homo sapiens
Description: SANGER: Inhibition of human Daoy cell growth in a cell viability assay.

[10] = test system: SK-LU-1; test: cells; format: functional, cell-based, Homo sapiens;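 note: cell viability assay measuring growth inhibition of human SK-LU-1 cells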
Description: SANGER: Inhibition of human SK-LU-1 cell growth in a cell viability assay.

[11] = test system: C3A; test: cells; format: functional, cell-based, Homo sapiens;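 note: growth inhibition of C3A human cells, quantified with a cell viability readout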
Description: SANGER: Inhibition of human C3A cell growth in a cell viability assay.

[12] = test system: A-431; test: cells; format: functional, cell-based, Homo sapiens;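 note: growth inhibition of A-431 cells, determined with a cell viability read-out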
Description: SANGER: Inhibition of human A431 cell growth in a cell viability assay.

[13] = test system: SCC-4; test: cells; format: functional, cell-based, Homo sapiens;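 note: growth inhibition of human SCC-4 cells, read out as cell viability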
Description: SANGER: Inhibition of human SCC-4 cell growth in a cell viability assay.

[14] = test system: MDA-MB-175-VII; test: cells; format: functional, cell-based, Homo sapiens
[15] = test system: NCI-H1573; test: cells; format: functional, cell-based, Homo sapiens;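 note: growth inhibition of NCI-H1573 cells, read out with a cell viability assay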
Description: SANGER: Inhibition of human NCI-H1573 cell growth in a cell viability assay.

[16] = test system: DBTRG-05MG; test: cells; format: functional, cell-based, Homo sapiens;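 note: cell viability assay measuring growth inhibition of human DBTRG-05MG cells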
Description: SANGER: Inhibition of human DBTRG-05MG cell growth in a cell viability assay.

[17] = test system: EFO-27; test: cells; format: functional, cell-based, Homo sapiens;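 note: growth inhibition of EFO-27 cells, read out with a cell viability assay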
Description: SANGER: Inhibition of human EFO-27 cell growth in a cell viability assay.

[18] = test system: HGC-27; test: cells; format: functional, cell-based, Homo sapiens;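 note: growth inhibition of human HGC-27 cells, read out in a cell viability assay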
Description: SANGER: Inhibition of human HGC-27 cell growth in a cell viability assay.

[19] = test system: HEC-1; test: cells; format: functional, cell-based, Homo sapiens
Description: SANGER: Inhibition of human HEC-1 cell growth in a cell viability assay.

[20] = test system: CAKI-1; test: cells; format: functional, cell-based, Homo sapiens;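 note: growth inhibition of CAKI-1 cells, measured by a cell viability assay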
Description: SANGER: Inhibition of human CAKI-1 cell growth in a cell viability assay.

[21] = test system: U-251; test: cells; format: functional, cell-based, Homo sapiens;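 note: growth inhibition of human U-251 cells, read out through a cell viability assay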
Description: SANGER: Inhibition of human U251 cell growth in a cell viability assay.

[22] = test system: NCI-H2087; test: cells; format: functional, cell-based, Homo sapiens;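 note: growth inhibition determined with a cell viability readout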
Description: SANGER: Inhibition of human NCI-H2087 cell growth in a cell viability assay.

[23] = test system: NCI-H292; test: cells; format: functional, cell-based, Homo sapiens;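 note: growth inhibition of NCI-H292 cells, read out with a cell viability assay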
Description: SANGER: Inhibition of human NCI-H292 cell growth in a cell viability assay.

[24] = test system: KOSC-2; test: cells; format: functional, cell-based, Homo sapiens;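 note: growth inhibition of KOSC-2 cells, read out by a cell viability assay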
Description: SANGER: Inhibition of human KOSC-2 cell growth in a cell viability assay.

[25] = test system: YAPC; test: cells; format: functional, cell-based, Homo sapiens;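 note: growth inhibition of YAPC cells, measured with a cell viability assay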
Description: SANGER: Inhibition of human YAPC cell growth in a cell viability assay.

[26] = test system: HCT-116; test: cells; format: functional, cell-based, Homo sapiens
Description: SANGER: Inhibition of human HCT-116 cell growth in a cell viability assay.

[27] = test system: OVCAR-8; test: cells; format: functional, cell-based, Homo sapiens;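 note: growth inhibition of human OVCAR-8 cells, read out by a cell viability assay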
Description: SANGER: Inhibition of human OVCAR-8 cell growth in a cell viability assay.

[28] = test system: AGS; test: cells; format: functional, cell-based, Homo sapiens;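 note: growth inhibition of AGS cells, determined with a cell viability assay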
Description: SANGER: Inhibition of human AGS cell growth in a cell viability assay.

[29] = test system: OC-314; test: cells; format: functional, cell-based, Homo sapiens; settings: Homo sapiens, OC-314
Description: SANGER: Inhibition of human OC-314 cell growth in a cell viability assay.

[30] = test system: RPMI-6666; test: cells; format: functional, cell-based, Homo sapiens; settings: rpmi-6666
Description: SANGER: Inhibition of human RPMI-6666 cell growth in a cell viability assay.

[31] = test system: CA46; test: cells; format: functional, cell-based, Homo sapiens; settings: ca46;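 note: growth inhibition of human CA46 cells, read out by a cell viability assay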
Description: SANGER: Inhibition of human CA46 cell growth in a cell viability assay.

[32] = test system: NCI-H889; test: cells; format: functional, cell-based, Homo sapiens; settings: nci-h889
Description: SANGER: Inhibition of human NCI-H889 cell growth in a cell viability assay.

[33] = test system: S-117; test: cells; format: functional, cell-based, Homo sapiens; settings: s-117
Description: SANGER: Inhibition of human S-117 cell growth in a cell viability assay.

[34] = test system: P31-FUJ; test: cells; format: functional, cell-based, Homo sapiens; settings: p31-fuj;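 note: growth inhibition of P31-FUJ cells, read out with a viability assay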
Description: SANGER: Inhibition of human P31-FUJ cell growth in a cell viability assay.

[35] = test system: SIMA; test: cells; format: functional, cell-based, Homo sapiens; settings: sima;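 note: growth inhibition of SIMA cells, measured with a cell viability readout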
Description: SANGER: Inhibition of human SIMA cell growth in a cell viability assay.

[36] = test system: RPMI 8402; test: SANGER: Inhibition of human RPMI-8402 cell growth in a cell viability assay.; format: functional, cell-based; settings: rpmi-8402; read-out: IC50
[37] = test system: BPH-1; test: cells; format: functional, cell-based, Homo sapiens; settings: bph-1;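 note: cell viability assay measuring growth inhibition of human BPH-1 cells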
Description: SANGER: Inhibition of human BPH-1 cell growth in a cell viability assay.

[38] = test system: KYSE-520 cell line; test: cells; format: functional, cell-based, Homo sapiens; settings: kyse-520;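 note: growth inhibition of human KYSE-520 cells, read out with a viability assay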
Description: SANGER: Inhibition of human KYSE-520 cell growth in a cell viability assay.

[39] = test system: MONO-MAC-6; test: cells; format: functional, cell-based, Homo sapiens; settings: mono-mac-6;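 note: cell viability assay measuring growth inhibition of human MONO-MAC-6 cells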
Description: SANGER: Inhibition of human MONO-MAC-6 cell growth in a cell viability assay.

[40] = test system: CMK; test: cells; format: functional, cell-based, Homo sapiens; settings: cmk
Description: SANGER: Inhibition of human CMK cell growth in a cell viability assay.

[41] = test system: EVSA-T; test: cells; format: functional, cell-based, Homo sapiens; settings: evsa-t;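 note: growth inhibition of EVSA-T cells, read out with a cell viability assay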
Description: SANGER: Inhibition of human EVSA-T cell growth in a cell viability assay.

[42] = test system: EGI-1; test: cells; format: functional, cell-based, Homo sapiens; settings: egi-1;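 note: cell viability readout used to gauge growth inhibition of EGI-1 cells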
Description: SANGER: Inhibition of human EGI-1 cell growth in a cell viability assay.

[43] = test system: NALM-6; test: cells; format: functional, cell-based, Homo sapiens; settings: nalm-6;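 note: growth inhibition of NALM-6 cells, read out with a cell viability assay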
Description: SANGER: Inhibition of human NALM-6 cell growth in a cell viability assay.

[44] = test system: BC1 cell line; test: SANGER: Inhibition of human BC-1 cell growth in a cell viability assay.; format: functional, cell-based; settings: bc1
[45] = test system: CHP-126; test: cells; format: functional, cell-based, Homo sapiens; settings: chp-126
Description: SANGER: Inhibition of human CHP-126 cell growth in a cell viability assay.

[46] = test system: MDA-MB-231; test: cells; format: functional, cell-based, Homo sapiens; settings: mda-mb-231
Description: SANGER: Inhibition of human MDA-MB-231 cell growth in a cell viability assay.

[47] = test system: PANC-03-27; test: cells; format: functional, cell-based, Homo sapiens; settings: panc-03-27
Description: SANGER: Inhibition of human PANC-03-27 cell growth in a cell viability assay.

[48] = test system: IGR-1; test: cells; format: functional, cell-based, Homo sapiens; settings: igr-1;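 note: growth inhibition of human IGR-1 cells, read out with a cell viability assay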
Description: SANGER: Inhibition of human IGR-1 cell growth in a cell viability assay.

## CN(C)C(=N)NC(=N)N [METFORMIN]
[1]; Homo sapiens, SNU-423
  IC50: > 20000 µM
[2]; Homo sapiens, MHH-ES-1
  IC50: > 20000 µM
[3]
  IC50: > 20000 µM
[4]; Homo sapiens, BXPC-3
  IC50: > 20000 µM
[5]; Homo sapiens, HCC1419
  IC50: > 20000 µM
[6]
  IC50: > 20000 µM
[7]; Homo sapiens, SNU-449
  IC50: > 20000 µM
[8]; Homo sapiens, HCC1395
  IC50: > 20000 µM
[9]; Homo sapiens, Daoy
  IC50: > 20000 µM
[10]; Homo sapiens, SK-LU-1
  IC50: > 20000 µM
[11]; Homo sapiens, C3A
  IC50: 11300 µM
[12]; Homo sapiens, A-431
  IC50: > 20000 µM
[13]; Homo sapiens, SCC-4
  IC50: > 20000 µM
[14]; Homo sapiens, MDA-MB-175-VII
  IC50: > 20000 µM
[15]; Homo sapiens, NCI-H1573
  IC50: 16900 µM
[16]; Homo sapiens, DBTRG-05MG
  IC50: 7270 µM
[17]; Homo sapiens, EFO-27
  IC50: > 20000 µM
[18]; Homo sapiens, HGC-27
  IC50: > 20000 µM
[19]; Homo sapiens, HEC-1
  IC50: 16200 µM
[20]; Homo sapiens, CAKI-1
  IC50: > 20000 µM
[21]; Homo sapiens, U-251
  IC50: 9900 µM
[22]; Homo sapiens, NCI-H2087
  IC50: > 20000 µM
[23]; Homo sapiens, NCI-H292
  IC50: 5870 µM
[24]; Homo sapiens, KOSC-2
  IC50: 3400 µM
[25]; Homo sapiens, YAPC
  IC50: > 20000 µM
[26]; Homo sapiens, HCT-116
  IC50: > 20000 µM
[27]; Homo sapiens, OVCAR-8
  IC50: > 20000 µM
[28]; Homo sapiens, AGS
  IC50: 15700 µM
[29]
  IC50: > 20000 µM

## BLEOMYCIN
[30]
  IC50: 0.445 µM
[31]
  IC50: 84.8 µM
[1]; snu-423
  IC50: 0.867 µM
[32]
  IC50: 513 µM
[2]; mhh-es-1
  IC50: 0.0436 µM
[4]; bxpc-3
  IC50: 3.81 µM
[5]; hcc1419
  IC50: 253 µM
[33]
  IC50: 90.2 µM
[7]; snu-449
  IC50: 0.389 µM
[8]; hcc1395
  IC50: 0.501 µM
[9]; daoy
  IC50: 0.083 µM
[10]; sk-lu-1
  IC50: 0.999 µM
[11]; c3a
  IC50: 0.296 µM
[12]; a-431
  IC50: 2.11 µM
[13]; scc-4
  IC50: 2.43 µM
[34]
  IC50: 460 µM
[35]
  IC50: 6.93 µM
[14]; mda-mb-175-vii
  IC50: 1.51 µM
[15]; nci-h1573
  IC50: 268 µM
[16]; dbtrg-05mg
  IC50: 5.67 µM
[36]
  IC50: 30.7 µM
[17]; efo-27
  IC50: 0.571 µM
[37]
  IC50: 0.0591 µM
[18]; hgc-27
  IC50: 2.84 µM
[38]
  IC50: 6.79 µM
[39]
  IC50: 4.59 µM
[40]
  IC50: 14.8 µM
[19]; hec-1
  IC50: 27.4 µM
[20]; caki-1
  IC50: 0.62 µM
[21]; u-251
  IC50: 4.36 µM
[41]
  IC50: 861 µM
[22]; nci-h2087
  IC50: 2.35 µM
[23]; nci-h292
  IC50: 0.803 µM
[42]
  IC50: 0.772 µM
[43]
  IC50: 0.42 µM
[44]
  IC50: 3.92 µM
[24]; kosc-2
  IC50: 319 µM
[25]; yapc
  IC50: 4190 µM
[26]; hct-116
  IC50: 2.88 µM
[45]
  IC50: 1.27 µM
[27]; ovcar-8
  IC50: 0.000476 µM
[46]
  IC50: 0.273 µM
[47]
  IC50: 0.316 µM
[28]; ags
  IC50: 0.503 µM
[48]
  IC50: 2.35 µM
